Assay results reported in patent US7998961B2, “Hydantoin derivatives useful as antibacterial agents” (Schering Corporation, priority 2006, dated 2011).
Read-outs that look alike come from different tables or passages of the source.

Target: T1, LpxC enzyme (Escherichia coli, UniProt P0A725)
T1 sequence (P0A725 1-305): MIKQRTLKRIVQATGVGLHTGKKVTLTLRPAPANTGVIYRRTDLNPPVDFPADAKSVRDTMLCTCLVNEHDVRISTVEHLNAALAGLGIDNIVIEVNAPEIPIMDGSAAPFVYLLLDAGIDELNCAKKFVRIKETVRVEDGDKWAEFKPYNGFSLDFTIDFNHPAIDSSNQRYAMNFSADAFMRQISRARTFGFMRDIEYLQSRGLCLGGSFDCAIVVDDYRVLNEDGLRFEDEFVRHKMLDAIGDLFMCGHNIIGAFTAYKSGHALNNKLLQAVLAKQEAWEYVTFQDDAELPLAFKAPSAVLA
Experiment: standard LpxC enzyme assay (RapidFire high-throughput mass spectrometry)
Type: biochemical
Conditions: for inhibition at 25 µg/mL: compound at 25 ug/mL; for IC50: LpxC inhibitory activity
Description: The standard LpxC assay consists of 0.2 nM LpxC enzyme, 1.0 μM UDP-3-O—(R-3-hydroxymyristoyl)-N-acetylglucosamine, and test compound, in assay buffer and 2% DMSO. Assay buffer is comprised of 25 mM HEPES, pH 7.3, 150 mM NaCl, 2.0 mM DTT, and 0.01% BSA. The enzyme reaction is carried out in a 96-well assay plate, in a final volume of 102 μL. Solutions of test compounds are prepared in 100% DMSO. Reaction additions, in order, are (1) 2.0 μL compound solution, (2) 80 μL of assay buffer, (3) 10 μL of 10 μM UDP-3-O—(R-3-hydroxymyristoyl)-N-acetylglucosamine (in assay buffer) and, (4) 10 μL of LpxC enzyme (20 nM in assay buffer) to initiate the reaction. In positive control reactions, addition (1) has 2.0 μL of 100% DMSO (without compound); these reactions are used as the total signal (TSB) value. Reactions are incubated at room temperature for 60 minutes when 10 μL of 1 N HCl is added to stop the reaction. The plate is shaken by hand for 10 seconds to ensure complete quenching. Assay plates are sealed with foil tape, and stored at −80° C. for 24-48 hr prior to analysis.
The concentrations of substrate and product in the reaction mixtures are determined with BioTrove's proprietary RapidFire™ high-throughput mass spectrometry (HTMS). Assay mixtures are partially purified with reverse phase chromatography, where they are washed with water containing 5 mM ammonium formate and eluted onto the mass spectrometer in 80% acetonitrile, 20% water, and 5 mM ammonium formate. The mass spectrometry peak areas of the substrate and product are measured to determine the concentration of these analytes. The assay signal is the percentage of substrate that is converted to product. Percent inhibition, % I, in test samples is determined from the following equation: […]

[1] = read-out: LpxC enzyme assay rating (% inhibition at indicated concentrations of 100 and 25 ug/mL): 25
[2] = compound at 100 ug/mL, read-out: LpxC enzyme assay rating (% inhibition at indicated concentrations of 100 and 25 ug/mL): 100
[3] = read-out: Numerical LpxC inhibitory activity (% inhibition): 100

| Structure (SMILES) | IC50 (read-out: IC50 rating) [nM] | also measured |
| --- | --- | --- |
| CC1(CC(=O)Nc2ccccc2C#Cc2ccccc2)NC(=O)NC1=O (centres unmarked) [Compound 32] | – | inhibition at 25 µg/mL [1]: < 10% |
| CC1(CC(=O)Nc2ccc(C#Cc3ccccc3)cc2)NC(=O)NC1=O (centres unmarked) [Compound 33] | > 5000 | – |
| CC1(CC(=O)NCCc2ccc(C#Cc3ccccc3)cc2)NC(=O)NC1=O (centres unmarked) [Compound 34] | – | inhibition at 25 µg/mL [1]: 10 to 30%; inhibition at 25 µg/mL (read-out: Numerical LpxC inhibitory activity (% inhibition): 25): 30% |
| CC1(CC(=O)NCCc2cccc(C#Cc3ccccc3)c2)NC(=O)NC1=O (centres unmarked) [Compound 35] | – | inhibition at 25 µg/mL [1]: < 10% |
| CC1(CC(=O)N2CCC(c3ccc(C#Cc4ccccc4)cc3)CC2)NC(=O)NC1=O (centres unmarked) [Compound 36] | 250 to 1000 | IC50 (read-out: IC50 values): 600 nM |
| CC1(CC(=O)N2CCCC(c3ccc(C#Cc4ccccc4)cc3)C2)NC(=O)NC1=O (centres unmarked) [Compound 37] | 250 to 1000 | – |
| CC1(CC(=O)N2CCC(O)(c3ccc(C#Cc4ccccc4)cc3)CC2)NC(=O)NC1=O (centres unmarked) [Compound 38] | 1000 to 5000 | – |
| CC1(CC(=O)N2CCN(c3ccc(C#Cc4ccccc4)cc3)CC2)NC(=O)NC1=O (centres unmarked) [Compound 39] | 250 to 1000 | IC50 (read-out: IC50 values): 500 nM |
| C[C@@H](NC(=O)CC1(C)NC(=O)NC1=O)c1ccc(C#Cc2ccccc2)cc1 (some centres unmarked) [Compound 40] | > 5000 | – |
| O=C1NC(=O)C(CC(=O)N2CCC(c3ccc(C#Cc4ccccc4)cc3)CC2)N1 (centres unmarked) [Compound 41] | – | inhibition at 100 µg/mL [2]: > 30%; inhibition at 100 µg/mL [3]: 60% |
| O=C1NC(=O)C(CC(=O)N2CCN(c3ccc(C#Cc4ccccc4)cc3)CC2)N1 (centres unmarked) [Compound 42] | – | inhibition at 100 µg/mL [2]: > 30% |
| CCC1(CC(=O)N2CCC(c3ccc(C#Cc4ccccc4)cc3)CC2)NC(=O)NC1=O (centres unmarked) [Compound 43] | 250 to 1000 | IC50 (read-out: IC50 values): 700 nM |
| O=C1NC(=O)C(CC(=O)N2CCC(c3ccc(Br)cc3)CC2)N1 (centres unmarked) [Compound 45] | – | inhibition at 100 µg/mL [2]: > 30%; inhibition at 100 µg/mL [3]: 68% |
| CC1(CC(=O)N2CCC(c3ccc(Br)cc3)CC2)NC(=O)NC1=O (centres unmarked) [Compound 46] | – | inhibition at 100 µg/mL [2]: > 30% |
| CCC1(CC(=O)N2CCC(c3ccc(Br)cc3)CC2)NC(=O)NC1=O (centres unmarked) [Compound 47] | – | inhibition at 100 µg/mL [2]: > 30% |
| C[C@@H](O)[C@H](NC(=O)c1ccc(C#Cc2ccccc2)cc1)C1NC(=O)NC1=O (some centres unmarked) [Compound 64] | > 5000 | – |
| C[C@H](O)[C@@H](NC(=O)c1ccc(C#Cc2ccccc2)cc1)C1NC(=O)NC1=O (some centres unmarked) [Compound 65] | > 5000 | – |
| CC1(CNC(=O)c2ccc(C#Cc3ccccc3)cc2)NC(=O)NC1=O (centres unmarked) [Compound 66] | > 5000 | – |
| C#Cc1ccc(C2CCN(C(=O)CC3(C)NC(=O)NC3=O)CC2)cc1 (centres unmarked) [Compound 75] | > 5000 | – |
| CCc1ccc(C2CCN(C(=O)CC3(C)NC(=O)NC3=O)CC2)cc1 (centres unmarked) [Compound 76] | > 5000 | – |
| CC1(CC(=O)N2CCC(c3ccc(CCN4CCOCC4)cc3)CC2)NC(=O)NC1=O (centres unmarked) [Compound 77] | > 5000 | – |
| CC1(CC(=O)N2CCC(c3ccc(-c4ccccc4)cc3)CC2)NC(=O)NC1=O (centres unmarked) [Compound 78] | > 5000 | – |
| CC1(CC(=O)N2CCC(c3ccc(-c4ccncc4)cc3)CC2)NC(=O)NC1=O (centres unmarked) [Compound 79] | > 5000 | – |
